US5173493A, “Pyridoindole derivatives and processes for preparation thereof” (Fujisawa Pharmaceutical Company, Ltd., priority 1988, dated 1992)
Like-named read-outs stand apart in the source and are kept apart here.

Legend:
Benzold-Jarisch reflex = assay: Inhibition of Benzold-Jarisch reflex; type: in vivo, Male Sprague-Dawley rats; conditions: Rattus norvegicus, 5 min, iv
Experimental: (A) Inhibition of Benzold-Jarisch reflex
Male Sprague-Dawley rats weighing 260-350 g were anesthetized intraperitoneally with 1.25 g/kg urethane.
Blood pressure and heart rate were monitored continuously from the left common carotid artery with a pressure transducer. A right femoral vein was connulated for the intravenous injection (iv) of drugs. The trachea was also connulated to ease the respiration.
Rats were given a rapid bolus injection of 2-methyl-5-hydroxytryptamine (32 μg/kg, iv) to establish the control bradycardic response. Once the heart rate returned to base line, the rats were given the test compound (iv), followed by 5-minutes interval and another bolus injection of 2-methyl-5-hydroxytryptamine (32 μg/kg, iv).

[1] = tested on: Cisplatin-induced vomiting; assay: Inhibition of Cisplatin-induced vomiting; type: in vivo, female beagles; conditions: Canis lupus familiaris; intravenously twice, 10 minutes prior to and 90 minutes after Cisplatin (3.2 mg/kg, iv); observed up to 5 hours
Experimental: (B) Inhibition of Cisplatin-induced vomiting
Nonfasted female beagles weighing about 10 kg were administered test compound or saline intravenously twice 10 minutes prior to and 90 minutes after Cisplatin dosing (3.2 mg/kg, iv).
Cisplatin was dissolved in 0.9% warm saline with a final concentration of 3 mg/ml and used immediately.

[2] = inhibition of bradycardic response to 2-methyl-5-hydroxytryptamine (32 μg/kg, iv), anesthetized rats, read-out: ED50

SMILES	ED50 (Benzold-Jarisch reflex; [2])	ED50 [1]	ED50 (Benzold-Jarisch reflex)
Cc1[nH]cnc1CC1CCc2c(C)c3ccccc3n2C1=O.Cl (single isomer, unassigned; (+)) [Compound 3, (+)-8,9-Dihydro-10-methyl-7-[(5-methyl-1H-imidazol-4-yl)methyl]pyrido[1,2-a]indol-6(7H)-one hydrochloride]	0.9 µg/kg	1.1 µg/kg	–
Cc1[nH]cnc1C(O)C1CCc2c(C)c3ccccc3n2C1=O.O=C(O)/C=C\C(=O)O (single isomer, unassigned; isomer b) [Compound 1, 8,9-Dihydro-7-[(hydroxy)(5-methyl-1H-imidazol-4-yl)methyl]-10-methylpyrido[1,2-a]indol-6(7H)-one maleate (isomer B)]	5.9 µg/kg	–	–
Cc1[nH]cnc1CC1(C)CCc2c(C)c3ccccc3n2C1=O (centres unmarked) [Compound 4, 8,9-Dihydro-7,10-dimethyl-7-[(5-methyl-1H-imidazol-4-yl)methyl]pyrido[1,2-a]indol-6(7H)-one]	1.1 µg/kg	–	–
Cc1c2n(c3ccccc13)C(=O)C(Cc1c[nH]cn1)CC2 (centres unmarked) [Compound 2, 8,9-Dihydro-7-[(1H-imidazol-4-yl)methyl]-10-methylpyrido[1,2-a]indol-6(7H)-one]	–	–	1.8 µg/kg
